Source: ChEMBL document CHEMBL1201862, “PubChem BioAssay data set” (2004)
Values belong to the molecule of their own block, whether it stands above or below them. Calls of active or inactive are those of the source.

Legend:
[1] = molecular target: Glyceraldehyde-3-phosphate dehydrogenase (Homo sapiens, UniProt P04406)
[2] = molecular target: T1, Alkaline phosphatase, tissue-nonspecific isozyme (Homo sapiens, UniProt P05186); experiment: potency against alkaline phosphatase TNAP – biochemical, luminescent, dose response, SAR follow-up (AID 1056)
T1 sequence (P05186 whole entry): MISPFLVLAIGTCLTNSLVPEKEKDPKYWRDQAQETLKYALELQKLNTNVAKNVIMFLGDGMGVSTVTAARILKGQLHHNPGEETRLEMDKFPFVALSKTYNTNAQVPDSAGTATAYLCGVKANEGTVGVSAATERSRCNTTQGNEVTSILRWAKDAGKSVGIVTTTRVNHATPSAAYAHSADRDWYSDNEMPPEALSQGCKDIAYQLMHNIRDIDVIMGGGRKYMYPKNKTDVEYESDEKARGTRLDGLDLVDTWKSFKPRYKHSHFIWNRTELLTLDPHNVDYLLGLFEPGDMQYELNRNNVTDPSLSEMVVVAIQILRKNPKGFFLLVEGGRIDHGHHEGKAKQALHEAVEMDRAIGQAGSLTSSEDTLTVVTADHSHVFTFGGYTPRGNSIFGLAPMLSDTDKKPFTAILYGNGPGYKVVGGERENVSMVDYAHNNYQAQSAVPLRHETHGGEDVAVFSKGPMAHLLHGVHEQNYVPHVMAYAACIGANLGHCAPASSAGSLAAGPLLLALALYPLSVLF

[3] = molecular target: T2, Heat shock factor protein 1 (Mus musculus, UniProt P38532); experiment: decrease of HSF1-responsive luciferase luminescence – cell-based, NIH3T3, dose retest, confirmation (AID 2382); assay type: functional;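 note: NIH3T3 fibroblasts with HSF1-driven luciferase reporter stressed by proteasome inhibitor MG132; luminescence from HSF1-driven luciferase expression after 8 hours of MG132 stress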
T2 sequence (P38532 whole entry): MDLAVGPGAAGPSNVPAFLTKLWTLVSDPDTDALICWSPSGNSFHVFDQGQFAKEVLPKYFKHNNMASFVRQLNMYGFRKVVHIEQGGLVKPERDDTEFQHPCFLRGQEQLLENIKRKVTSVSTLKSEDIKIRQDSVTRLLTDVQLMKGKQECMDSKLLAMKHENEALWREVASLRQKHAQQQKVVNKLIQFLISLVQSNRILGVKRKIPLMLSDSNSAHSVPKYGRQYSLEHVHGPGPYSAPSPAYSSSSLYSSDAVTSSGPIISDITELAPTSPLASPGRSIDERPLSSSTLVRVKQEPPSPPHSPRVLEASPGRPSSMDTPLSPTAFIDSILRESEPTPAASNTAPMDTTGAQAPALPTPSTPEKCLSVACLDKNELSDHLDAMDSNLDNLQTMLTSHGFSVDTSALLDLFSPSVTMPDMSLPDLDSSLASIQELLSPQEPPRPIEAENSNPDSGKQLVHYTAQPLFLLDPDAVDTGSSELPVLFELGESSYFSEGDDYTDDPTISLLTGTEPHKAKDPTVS

[4] = viability loss in THP-1 monocytes – THP-1 cells, cytotoxicity control for Vif-APOBEC3G degradation inhibitor project, dose response (AID 1117359); assay type: functional; conditions: THP-1
[5] = molecular target: Disintegrin and metalloproteinase domain-containing protein 17 (Homo sapiens, UniProt P78536); experiment: exosite inhibitors of ADAM17, dose response, biochemical (AID 743260)
Disintegrin and metalloproteinase domain-containing protein 17, sequence (P78536 whole entry, the tested form may be a part): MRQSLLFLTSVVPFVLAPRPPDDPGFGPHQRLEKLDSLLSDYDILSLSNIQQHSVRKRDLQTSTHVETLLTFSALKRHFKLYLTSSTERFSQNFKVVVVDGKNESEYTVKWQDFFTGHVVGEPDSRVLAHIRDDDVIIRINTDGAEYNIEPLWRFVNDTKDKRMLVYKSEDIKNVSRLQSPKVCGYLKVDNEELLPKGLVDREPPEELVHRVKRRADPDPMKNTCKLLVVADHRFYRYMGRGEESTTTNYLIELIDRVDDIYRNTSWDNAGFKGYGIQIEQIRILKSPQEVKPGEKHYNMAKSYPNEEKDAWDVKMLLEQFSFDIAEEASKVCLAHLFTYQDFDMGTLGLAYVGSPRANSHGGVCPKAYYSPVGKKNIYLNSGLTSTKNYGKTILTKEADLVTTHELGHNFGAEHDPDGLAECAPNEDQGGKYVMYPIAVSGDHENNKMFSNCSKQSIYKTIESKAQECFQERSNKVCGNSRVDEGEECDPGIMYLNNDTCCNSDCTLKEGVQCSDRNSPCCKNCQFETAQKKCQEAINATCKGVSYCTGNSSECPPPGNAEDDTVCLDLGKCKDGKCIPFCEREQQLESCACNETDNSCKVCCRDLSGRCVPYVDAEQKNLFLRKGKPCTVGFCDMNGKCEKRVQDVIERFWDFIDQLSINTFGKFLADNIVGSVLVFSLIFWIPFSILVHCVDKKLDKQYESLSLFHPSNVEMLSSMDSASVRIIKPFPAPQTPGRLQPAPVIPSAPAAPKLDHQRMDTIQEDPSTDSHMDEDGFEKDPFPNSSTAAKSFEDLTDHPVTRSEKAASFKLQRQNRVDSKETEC

[6] = inhibition of ADAM10 peptide cleavage – biochemical, FRET peptide substrate, recombinant human ADAM10, selectivity assay for ADAM17 exosite inhibitor project, dose response (AID 743259);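 note: ADAM10 enzyme cleaving a FRET peptide substrate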
[7] = tested on: SN12K1; experiment: cells; assay type: functional; conditions: Homo sapiens
[8] = tested on: P388; experiment: cells; assay type: functional; conditions: Mus musculus
[9] = molecular target: Prothrombin (Homo sapiens, UniProt P00734); experiment: Thrombin 1536 HTS Dose Response Confirmation. [Related pubchem assays: 1046 (Thrombin 1536 HTS; hits were confirmed in this assay)]; assay type: functional
[10] = molecular target: Cytochrome P450 2C19 (Homo sapiens, UniProt P33261); experiment: Cytochrome panel assay with activity outcomes. Panel member name: p450-cyp2c19 Compounds with AC50 equal or less than 10 uM are considered active; assay type: functional; conditions: read-out: AC50
Cytochrome P450 2C19, sequence (P33261 whole entry): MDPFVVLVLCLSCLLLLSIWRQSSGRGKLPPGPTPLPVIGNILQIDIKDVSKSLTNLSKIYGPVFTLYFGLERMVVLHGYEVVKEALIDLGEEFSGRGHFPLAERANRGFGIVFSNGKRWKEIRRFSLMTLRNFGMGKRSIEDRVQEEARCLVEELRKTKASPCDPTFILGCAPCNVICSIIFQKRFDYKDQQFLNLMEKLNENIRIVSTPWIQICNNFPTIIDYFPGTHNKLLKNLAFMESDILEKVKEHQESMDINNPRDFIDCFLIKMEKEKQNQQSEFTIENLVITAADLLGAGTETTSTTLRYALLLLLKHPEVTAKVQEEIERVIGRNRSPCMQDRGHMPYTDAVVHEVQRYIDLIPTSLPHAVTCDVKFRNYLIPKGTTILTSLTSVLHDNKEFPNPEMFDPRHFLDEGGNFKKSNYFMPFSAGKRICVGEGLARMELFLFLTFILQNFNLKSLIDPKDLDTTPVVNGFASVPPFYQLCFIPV

[11] = molecular target: Cytochrome P450 2D6 (Homo sapiens, UniProt P10635);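 note: CYP2D6 member of a cytochrome P450 panel assay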
Cytochrome P450 2D6, sequence (P10635 whole entry): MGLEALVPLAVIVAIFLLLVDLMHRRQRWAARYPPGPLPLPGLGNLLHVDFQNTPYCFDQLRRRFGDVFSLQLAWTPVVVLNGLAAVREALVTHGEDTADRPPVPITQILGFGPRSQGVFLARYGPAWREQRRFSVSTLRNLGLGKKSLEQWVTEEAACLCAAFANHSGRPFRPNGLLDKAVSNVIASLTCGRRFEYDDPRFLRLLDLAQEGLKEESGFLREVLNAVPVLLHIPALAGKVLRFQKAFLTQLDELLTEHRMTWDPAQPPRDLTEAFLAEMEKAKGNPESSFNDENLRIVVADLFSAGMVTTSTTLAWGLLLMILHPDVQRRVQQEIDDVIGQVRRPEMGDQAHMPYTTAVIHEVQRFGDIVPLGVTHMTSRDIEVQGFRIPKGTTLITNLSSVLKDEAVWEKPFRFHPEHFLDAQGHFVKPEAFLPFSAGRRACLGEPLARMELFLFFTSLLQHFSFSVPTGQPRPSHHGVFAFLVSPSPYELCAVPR

[12] = molecular target: T3, Cytochrome P450 1A2 (Homo sapiens, UniProt P05177);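 note: PubChem cytochrome P450 panel assay, CYP1A2 panel member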
T3 sequence (P05177 whole entry): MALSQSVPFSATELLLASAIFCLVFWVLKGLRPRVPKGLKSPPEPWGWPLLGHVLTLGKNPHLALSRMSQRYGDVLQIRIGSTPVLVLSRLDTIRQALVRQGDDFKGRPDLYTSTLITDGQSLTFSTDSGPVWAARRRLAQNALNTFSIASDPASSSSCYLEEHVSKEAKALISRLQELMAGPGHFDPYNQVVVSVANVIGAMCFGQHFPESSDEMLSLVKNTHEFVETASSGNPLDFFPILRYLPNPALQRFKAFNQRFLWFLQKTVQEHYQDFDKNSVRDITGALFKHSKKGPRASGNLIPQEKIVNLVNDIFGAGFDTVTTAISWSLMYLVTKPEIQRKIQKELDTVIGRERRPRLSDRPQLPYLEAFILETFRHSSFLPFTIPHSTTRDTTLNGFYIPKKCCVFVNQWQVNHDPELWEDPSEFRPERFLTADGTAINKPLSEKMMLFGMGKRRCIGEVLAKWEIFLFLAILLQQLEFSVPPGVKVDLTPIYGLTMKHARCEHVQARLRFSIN

[13] = molecular target: Cytochrome P450 2C9 (Homo sapiens, UniProt P11712)
Cytochrome P450 2C9, sequence (P11712 whole entry): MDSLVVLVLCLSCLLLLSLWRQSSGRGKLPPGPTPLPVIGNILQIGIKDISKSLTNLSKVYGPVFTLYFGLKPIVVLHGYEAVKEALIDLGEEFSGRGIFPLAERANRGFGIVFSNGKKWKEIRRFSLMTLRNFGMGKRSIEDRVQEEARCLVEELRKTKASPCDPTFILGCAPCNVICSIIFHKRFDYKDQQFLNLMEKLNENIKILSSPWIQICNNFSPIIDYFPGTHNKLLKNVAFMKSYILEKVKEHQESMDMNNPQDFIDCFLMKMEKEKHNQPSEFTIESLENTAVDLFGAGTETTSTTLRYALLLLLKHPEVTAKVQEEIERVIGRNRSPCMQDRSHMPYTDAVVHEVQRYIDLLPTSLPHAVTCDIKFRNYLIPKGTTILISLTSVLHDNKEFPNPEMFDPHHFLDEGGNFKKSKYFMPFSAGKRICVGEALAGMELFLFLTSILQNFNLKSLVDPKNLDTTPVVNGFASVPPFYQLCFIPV

[14] = molecular target: Cytochrome P450 3A4 (Homo sapiens, UniProt P08684);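 note: CYP3A4 tested as one member of a cytochrome P450 panel screen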
Cytochrome P450 3A4, sequence (P08684 whole entry): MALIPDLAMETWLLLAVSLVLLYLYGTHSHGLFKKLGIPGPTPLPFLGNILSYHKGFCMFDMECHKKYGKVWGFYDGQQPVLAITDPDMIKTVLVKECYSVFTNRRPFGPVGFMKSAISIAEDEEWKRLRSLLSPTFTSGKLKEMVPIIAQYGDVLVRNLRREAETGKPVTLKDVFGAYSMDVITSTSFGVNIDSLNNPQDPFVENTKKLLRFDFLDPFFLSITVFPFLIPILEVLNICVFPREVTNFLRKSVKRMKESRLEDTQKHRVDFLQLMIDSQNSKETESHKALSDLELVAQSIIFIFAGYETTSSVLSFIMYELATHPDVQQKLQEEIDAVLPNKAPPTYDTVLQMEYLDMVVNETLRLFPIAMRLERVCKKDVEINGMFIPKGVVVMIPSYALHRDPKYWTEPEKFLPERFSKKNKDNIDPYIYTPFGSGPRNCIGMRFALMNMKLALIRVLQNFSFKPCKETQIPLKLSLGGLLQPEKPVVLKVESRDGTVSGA

[15] = P. falciparum Dd2 growth inhibitors, dose response, SYBR Green, cherry-picked samples (AID 1159567); assay type: functional, cell-based
[16] = toxicity to human hepatoma HepG2 cells – cell-based, cherry-picked samples, cytotoxicity control, dose response (AID 1159577); assay type: functional
[17] = tested on: P388/ADR; experiment: cells; assay type: functional; conditions: Mus musculus
[18] = general mammalian cell viability loss – inhibitor set, cherry-pick, set 2, cytotoxicity control for miR-122 modulator project, dose response (AID 720697); assay type: functional, cell-based
[19] = molecular target: T4, Voltage-gated N-type calcium channel alpha-1B subunit/Amyloid beta A4 precursor protein-binding family A member 1 (Homo sapiens, UniProt Q00975+Q02410); assay type: protein assay
[20] = molecular target: T4, Voltage-gated N-type calcium channel alpha-1B subunit/Amyloid beta A4 precursor protein-binding family A member 1; assay type: protein assay; remark: listed apart in the source
[21] = molecular target: T5, Protein skinhead-1 (Caenorhabditis elegans, UniProt P34707); assay type: functional
T5 sequence (P34707 whole entry): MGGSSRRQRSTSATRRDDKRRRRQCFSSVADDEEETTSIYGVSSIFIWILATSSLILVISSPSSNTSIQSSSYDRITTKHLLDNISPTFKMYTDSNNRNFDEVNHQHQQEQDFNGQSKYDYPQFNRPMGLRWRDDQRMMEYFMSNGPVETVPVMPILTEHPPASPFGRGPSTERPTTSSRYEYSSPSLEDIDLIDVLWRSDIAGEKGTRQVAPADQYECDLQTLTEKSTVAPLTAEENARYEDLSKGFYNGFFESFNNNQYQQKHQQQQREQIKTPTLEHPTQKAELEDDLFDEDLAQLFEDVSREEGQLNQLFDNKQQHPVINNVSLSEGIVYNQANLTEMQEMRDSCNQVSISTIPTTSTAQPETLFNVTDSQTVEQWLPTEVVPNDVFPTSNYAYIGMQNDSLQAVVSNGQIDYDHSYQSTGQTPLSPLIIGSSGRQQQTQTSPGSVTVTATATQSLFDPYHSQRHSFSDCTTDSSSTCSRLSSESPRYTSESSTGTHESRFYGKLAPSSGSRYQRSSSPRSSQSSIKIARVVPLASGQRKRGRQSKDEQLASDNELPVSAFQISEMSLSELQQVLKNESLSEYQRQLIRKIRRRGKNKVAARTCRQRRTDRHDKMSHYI

[22] = viability of uninfected HEp-2 cells – cell-based, HTS, cytotoxicity control for RSV inhibitor project, dose response (AID 2410); assay type: functional; conditions: human respiratory syncytial virus

Glyceraldehyde-3-phosphate dehydrogenase, sequence (P04406 whole entry): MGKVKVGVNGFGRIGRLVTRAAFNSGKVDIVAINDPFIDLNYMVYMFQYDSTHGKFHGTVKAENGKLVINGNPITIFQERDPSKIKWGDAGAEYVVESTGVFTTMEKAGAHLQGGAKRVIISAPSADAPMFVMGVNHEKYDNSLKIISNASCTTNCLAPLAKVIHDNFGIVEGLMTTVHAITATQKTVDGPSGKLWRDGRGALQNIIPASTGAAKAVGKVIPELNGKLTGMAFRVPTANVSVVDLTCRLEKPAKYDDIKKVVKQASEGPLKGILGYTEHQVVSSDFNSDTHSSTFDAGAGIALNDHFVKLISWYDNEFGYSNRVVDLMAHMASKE

IC50 [1]: > 100 µM (not active) | IC50 [2]: 10.9 µM (active)
SMILES: O=S(=O)(Nc1cccnc1)c1ccc(Br)cc1OC(F)(F)F

EC50 [3]: > 195 µM (not active)
SMILES: NNC(=O)c1ccc(N2CCc3ccccc32)c([N+](=O)[O-])c1
CC50 [4]: > 40 µM (active)

IC50 [5]: > 69.5 µM (inactive)
SMILES: CN(c1ccc(OCc2ccc([N+](=O)[O-])cc2)cc1)S(=O)(=O)c1ccccc1
IC50 [6]: > 69.5 µM (inactive)

SMILES: CCC(/C=C/C1OC(=O)C=CC1C)=C\C(C)C/C=C/C(C)=C/C(C)C(=O)C(C)C(O)C(C)C/C(C)=C/C(=O)O (configuration not stated)
GI50 [7]: 1.56 µM (inactive) | GI50 [8]: 0.914 µM (active)

IC50 [9]: 0.133 µM (active)
SMILES: O=C(CCc1ccccc1)n1nc(-c2ccco2)nc1SCc1ccccc1

SMILES: C[C@]12Cc3cn4c(nc3C=C1CC[C@H]1[C@@H]2CC[C@@]2(C)[C@H]1CC[C@@]2(O)C#N)nc1ccccc14
AC50 [10]: 7.94 µM (inconclusive) | AC50 [11]: 25.1 µM (inconclusive) | AC50 [12]: 15.8 µM (inconclusive) | AC50 [13]: 10 µM (inconclusive) | AC50 [14]: inconclusive

IC50 [5]: > 69.5 µM (inactive)
SMILES: O=C(Nc1cc(Cl)ccc1O)C1CC(c2c(F)cccc2Cl)=NO1 (configuration not stated)
IC50 [6]: > 69.5 µM (inactive)

IC50 [1]: > 100 µM (not active) | IC50 [2]: 1.7 µM (active)
SMILES: CCOc1cc(C)c(C)cc1S(=O)(=O)Nc1cccnc1

SMILES: OC[C@H]1[C@@H](c2ccc(/C=C/c3ccccc3)cc2)[C@@H]2CN(Cc3ccncc3)CCCCN12
AC50 [15]: 2.32 µM (active) | AC50 [16]: 12.7 µM (active)

SMILES: O=C(NN1C(=O)CS(=O)(=O)C1c1ccc(Cl)c(Cl)c1)c1ccncc1 (configuration not stated)
GI50 [17]: 36.6 µM (inactive) | GI50 [7]: > 100 µM (inactive) | GI50 [8]: 25.6 µM (inactive)

SMILES: CN(C)CCCNC(=O)C[C@H]1CC[C@H]2[C@H](COc3ccc(NC(=O)NC4CCCC4)cc3C(=O)N2C)O1
AC50 [18]: 0.509 µM (active)

IC50 [1]: > 10 µM (inconclusive) | IC50 [2]: > 10 µM (inactive)
SMILES: O=C1C2CCCCC2C(=O)N1c1nccs1 (configuration not stated)

SMILES: COc1nc(SC)nc2c1cnn2C1OC(C(O)CO)C(OC)C1O (configuration not stated)
GI50 [17]: 41.3 µM (inactive) | GI50 [7]: > 54.3 µM (inactive) | GI50 [8]: > 39.4 µM (inactive)

SMILES: C[N+](C)([O-])CCOc1cc2c(c3ccccc13)-c1ccccc1C2=O
GI50 [17]: 8.79 µM (inactive) | GI50 [7]: 4.37 µM (inactive) | GI50 [8]: 6.19 µM (inactive)

SMILES: CCNC(=O)C[C@H]1CC[C@H]2[C@H](COc3ccc(NS(C)(=O)=O)cc3C(=O)N2C)O1
AC50 [18]: 3.57 µM (active)

IC50 [9]: > 50 µM (not active)
SMILES: O=C(CC(c1ccc(F)cc1)c1ccco1)N1CCOCC1 (configuration not stated)

SMILES: O=C(Cn1c(=O)c2ccccc2n(CC(=O)N2CCCCC2)c1=O)N1CCCCC1
AC50 [18]: 6.5 µM (active)

SMILES: C/C=C/c1ccc([C@@H]2[C@@H](CO)N(c3nc(CC)cs3)[C@@H]2CNC(C)C)cc1
AC50 [15]: 0.751 µM (active) | AC50 [16]: 20.8 µM (active)

AC50 [12]: 15.8 µM (inconclusive) | AC50 [14]: inconclusive
SMILES: Cc1ccccc1OCC(=O)Nc1ccc(N2CCN(C(=O)C(C)C)CC2)c(Cl)c1

SMILES: N#Cc1c(N)nc2c(c1-c1cccs1)CCCC2
AC50 [18]: 6.16 µM (active)

SMILES: CN(C)CCNC(=O)c1cccc2ccc(-c3ccc(F)cc3)nc12
GI50 [17]: 1.75 µM (inactive) | GI50 [7]: 2.96 µM (inactive) | GI50 [8]: 0.61 µM (active)

IC50 [19]: > 56.8 µM (not active) | IC50 [20]: > 50 µM (inactive)
SMILES: CC(=O)NC1=NC(=O)/C(=C/c2cn(C(C)=O)nc2-c2ccccc2)S1

IC50 [21]: 17.4 µM (active) | AC50 [14]: inconclusive
SMILES: c1ccc(Oc2cc(-c3ccccc3)ncn2)cc1

IC50 [9]: > 50 µM (not active)
SMILES: Cn1c(SCC(=O)NN=C(S)Nc2ccccc2)nnc1-c1ccncc1

IC50 [5]: > 69.5 µM (inactive)
SMILES: COc1ccc(NC(=O)C2CCN(S(=O)(=O)c3c(C)noc3/C=C/N(C)C)CC2)cc1
IC50 [6]: 23.9 µM (inactive)

SMILES: Cc1ccc(-c2ccc3c(c2)O[C@@H](CN(C)C(=O)Nc2ccc(C(F)(F)F)cc2)[C@H](C)CN([C@H](C)CO)S3(=O)=O)cc1
AC50 [15]: 5.26 µM (active) | AC50 [16]: > 39 µM (inactive)

IC50 [5]: > 69.5 µM (inactive)
SMILES: COc1ccc(C2=NS(=O)(=O)N(C)C(C(=O)Nc3ccc(C)cc3)=C2)cc1
IC50 [6]: 56.7 µM (inactive)

AC50 [14]: inconclusive
SMILES: CCN(CC)S(=O)(=O)c1ccc(C(=O)NC2=C(C(=O)OC)SCC2)cc1

AC50 [11]: 17.8 µM (inconclusive) | AC50 [14]: inconclusive
SMILES: c1ccc(-c2noc(CSc3nnnn3C3CCCCC3)n2)cc1

IC50 [5]: > 69.5 µM (inactive)
SMILES: Clc1cccc(NCc2nnc(SCc3ccc(Cl)cc3Cl)o2)c1
CC50 [22]: 19.1 µM (active) | IC50 [6]: 25.4 µM (inactive)

AC50 [10]: 15.8 µM (inconclusive) | AC50 [11]: 0.00316 µM (inconclusive) | AC50 [13]: 39.8 µM (inconclusive) | AC50 [14]: inconclusive
SMILES: Cc1cccc(C(=O)N2CCC(c3nc(-c4ccc(S(=O)(=O)N5CCOCC5)cc4)no3)CC2)c1

SMILES: O=[N+]([O-])c1ccc2[nH]c3c(-c4ccccc4)nccc3c2c1
GI50 [17]: 12.9 µM (inactive) | GI50 [7]: 20.5 µM (inactive) | GI50 [8]: 10.9 µM (inactive)
